From patent publication US4315003A, “Compositions containing azo compounds and use thereof for therapeutic treatment” (priority 1979, dated 1982)

Columns and labels:
rats [1] = test: Diuretic action in rats (urinary volume during 5 hours after oral administration); assay type: in vivo, rat (male, Wistar strain); conditions: urinary volume 5 hours, control = 100%
Procedure: A group of 5 male rats of Wistar strain having each a body weight ranging from 180 to 200 grams was used for each test compound. The rats were fasted overnight and then abstained from water two hours before the administration of the test compound. The test compound was prepared by suspending the compound in a 5% arabic gum-saline solution and administered orally to the rats in the amount of 25 ml per kg. of body weight.
The urine was collected during 5 hours after administration and its volume was measured. The diuretic actions of the test compounds were calculated as the urinary volume of the control group where no test compound was administered being as 100%.

rats [2] = test: Hypertensive action in rats (blood pressure, oral, without anesthesia); assay type: in vivo, rat
Procedure: Hypertensive Action in Rats
A suspension of the test compound in a 5% arabic gum solution was orally to rats catheterized before more than 24 hours according to Mizokami et al. (Nihon Taishitsugaku Zasshi, 32, p.p. 59-63 (1969)).

[3] = tested on: isolated guinea-pig atria; test: Cardiotropic action in isolated guinea-pig atria; design: species or system guinea-pig (male); conditions: Cavia porcellus, 30° C.; for inhibition at 1 µg/mL / activation at 1 µg/mL: 1 μg/ml; for inhibition at 3 µg/mL / activation at 3 µg/mL: 3 μg/ml
Procedure: Cardiotropic Action in Isolated Guinea-Pig Atria
The isolated atria from male Guinea-Pigs weighing about 350 grams were hanged in an organ bath filled with a Krebs-Henselite's solution and bubbled with a mixed gas (5% CO2 and 95% O2) at 30° C. A solution of the test compound in dimethylsulfoxide was added to the bath. The contractile force and beats were then measured and calibrated into a percentage increase of the contractile force and a percentage decrease of the beats.

rabbit eye mucosa = test: Therapeutic action on hyperemia of rabbit eye mucosa (induced by 0.03 N sodium hydroxide); assay type: in vivo, rabbit (male Japanese albino); design: key: conjunctival erythema score per Fukui and Ikemoto standards; conditions: for Average Erythema Score After Treatment: 50 μl instilled, before treatment 1, solvent alone 1; for Average Erythema Score Before Treatment: baseline
Procedure: Therapeutic Action on Hyperemia of Rabbit Eye Mucosa
100 μl of 0.03 N sodium hydroxide was instillated into one eye to induce hyperemia in male Japanese albino rabbits weighting about 3 Kg. A group of 3 rabbits was used for test, which were caused an erythema score 1 on their conjunctive based on the standards of Fukui and Ikemoto (Gendai-no-Rinshao, 4, pp. 277 (1970)). The test compound was dissolved in a 10% NIKKOL HCO-60 (trademark: Nikko Chemical Co., Ltd.) and instilled to the test rabbit at a rate of 50 μl.

Acute toxicity in mice = conditions: mouse, in vivo, deaths for seven days
Procedure: A group of 10 male mice of ddY strain weighing about 25 grams was administered orally or intraperitoneally with a suspension of the test compound in a 5% arabic gum solution in the amount of 10 ml per kg. of body weight. The LD50 values were calculated by means of the Wilcoxon-Litchfield method on the number of mice died for seven days after administration.

Solubility = assay type: physicochemical
[4] = read-out: Percentage Decrease in Beats
[5] = read-out: Percentage Increase of Contractile Force

With `COc1ccc(Cl)cc1N=Nc1ncc[nH]1` [Compound A, 2-[(2-methoxy-5-chlorophenyl)azo]-1H-imidazole] the “Diuretic Activity” value (rats [1]; 0.5 mg/kg) was 133%, the “Diuretic Activity” value (rats [1]; 1.0 mg/kg) was 183% and the “Diuretic Activity” value (rats [1]; 2.0 mg/kg) was 329%. The “Variation in Blood Pressures, Duration Period” value (shortened to “Variation … Duration Period”) (rats [2]; 1 mg/kg) was 55 min, the “Variation in Blood Pressures, Percentage Increase” value (shortened to “Variation … Percentage Increase”) (rats [2]; 1 mg/kg) was 49% and the inhibition at 1 µg/mL [3, 4] was 5.4%. For the same molecule, the activation at 1 µg/mL [3, 5] was 15.4%, the “Average Erythema Score After Treatment” value (rabbit eye mucosa; 0.05%) was 0.33 and the “Average Erythema Score Before Treatment” value (rabbit eye mucosa) was 1. The LD50 at 168 h (Acute toxicity in mice; ip) was 795 mg/kg, the LD50 at 168 h (Acute toxicity in mice; po, orally) was 1280 mg/kg and the Solubility in acetone (Solubility) was “readily soluble”. For the same molecule, the Solubility in hexane (Solubility) was “less soluble”, the Solubility in methanol (Solubility) was “readily soluble” and the Solubility in water (Solubility) was “less soluble”.

In the case of `COc1ccc(F)cc1N=Nc1ncc[nH]1` [Compound B, 2-[(2-methoxy-5-fluorophenyl)azo]-1H-imidazole], the “Diuretic Activity” value (rats [1]; 1.0 mg/kg) was 154%, the “Diuretic Activity” value (rats [1]; 2.0 mg/kg) was 275% and the “Variation … Duration Period” value (rats [2]; 2 mg/kg) was 65 min. For the same molecule, the “Variation … Percentage Increase” value (rats [2]; 2 mg/kg) was 42%, the inhibition at 1 µg/mL [3, 4] was 2.3% and the activation at 1 µg/mL [3, 5] was 11.5%. For the same molecule, the “Average Erythema Score After Treatment” value (rabbit eye mucosa; 0.05%) was 0.33, the “Average Erythema Score Before Treatment” value (rabbit eye mucosa) was 1 and the LD50 at 168 h (Acute toxicity in mice; ip) was 322 mg/kg. The LD50 at 168 h (Acute toxicity in mice; po, orally) was 462 mg/kg, the Solubility in acetone (Solubility) was “readily soluble” and the Solubility in hexane (Solubility) was “less soluble”. The Solubility in methanol (Solubility) was “readily soluble” and the Solubility in water (Solubility) was “less soluble”.

For `COc1ccc(Br)cc1N=Nc1ncc[nH]1` [Compound C, 2-[(2-methoxy-5-bromophenyl)azo]-1H-imidazole], the “Diuretic Activity” value (rats [1]; 5.0 mg/kg) was 171%, the “Diuretic Activity” value (rats [1]; 10.0 mg/kg) was 283% and the “Variation … Duration Period” value (rats [2]; 5 mg/kg) was 70 min. The “Variation … Percentage Increase” value (rats [2]; 5 mg/kg) was 40%, the inhibition at 3 µg/mL [3, 4] was 4.2% and the activation at 3 µg/mL [3, 5] was 7.4%. For the same molecule, the “Average Erythema Score After Treatment” value (rabbit eye mucosa; 0.2%) was 0.33, the “Average Erythema Score Before Treatment” value (rabbit eye mucosa) was 1 and the LD50 at 168 h (Acute toxicity in mice; ip) was > 1000 mg/kg. For the same molecule, the LD50 at 168 h (Acute toxicity in mice; po, orally) was > 1500 mg/kg, the Solubility in acetone (Solubility) was “readily soluble” and the Solubility in hexane (Solubility) was “sparingly soluble”. For the same molecule, the Solubility in methanol (Solubility) was “readily soluble” and the Solubility in water (Solubility) was “sparingly soluble”.

In the case of `COc1ccccc1N=Nc1ncc[nH]1` [Compound E, 2-[(2-methoxyphenyl)azo]-1H-imidazole], the “Diuretic Activity” value (rats [1]; 10.0 mg/kg) was 175%, the “Diuretic Activity” value (rats [1]; 20.0 mg/kg) was 206% and the “Variation … Duration Period” value (rats [2]; 10 mg/kg) was 85 min. The “Variation … Percentage Increase” value (rats [2]; 10 mg/kg) was 52%, the inhibition at 10 µg/mL ([3]; 10 μg/ml, read-out: Percentage Decrease in Beats) was 2.2% and the activation at 10 µg/mL ([3]; 10 μg/ml, read-out: Percentage Increase of Contractile Force) was 5.7%. For the same molecule, the “Average Erythema Score After Treatment” value (rabbit eye mucosa; 0.1%) was 0.5, the “Average Erythema Score Before Treatment” value (rabbit eye mucosa) was 1 and the LD50 at 168 h (Acute toxicity in mice; ip) was 630 mg/kg. For the same molecule, the LD50 at 168 h (Acute toxicity in mice; po, orally) was 1010 mg/kg, the Solubility in acetone (Solubility) was “readily soluble” and the Solubility in hexane (Solubility) was “sparingly soluble”. The Solubility in methanol (Solubility) was “readily soluble” and the Solubility in water (Solubility) was “sparingly soluble”.

With `NS(=O)(=O)c1cc(C(=O)O)c(NCc2ccco2)cc1Cl` [furosemide, reference compound] the “Diuretic Activity” value (rats [1]; 5.0 mg/kg) was 113%, the “Diuretic Activity” value (rats [1]; 10.0 mg/kg) was 188% and the “Diuretic Activity” value (rats [1]; 20.0 mg/kg) was 292%.

For `COc1ccc(I)cc1N=Nc1ncc[nH]1` [Compound D], the “Diuretic Activity” value (rats [1]; 5.0 mg/kg) was 138%, the “Diuretic Activity” value (rats [1]; 10.0 mg/kg) was 183% and the “Variation … Duration Period” value (rats [2]; 5 mg/kg) was 50 min. The “Variation … Percentage Increase” value (rats [2]; 5 mg/kg) was 35%, the inhibition at 3 µg/mL [3, 4] was 3.6% and the activation at 3 µg/mL [3, 5] was 6.9%. For the same molecule, the “Average Erythema Score After Treatment” value (rabbit eye mucosa; 0.2%) was 0.5, the “Average Erythema Score Before Treatment” value (rabbit eye mucosa) was 1 and the LD50 at 168 h (Acute toxicity in mice; ip) was > 1000 mg/kg. For the same molecule, the LD50 at 168 h (Acute toxicity in mice; po, orally) was > 1500 mg/kg, the Solubility in acetone (Solubility) was “readily soluble” and the Solubility in hexane (Solubility) was “sparingly soluble”. The Solubility in methanol (Solubility) was “readily soluble” and the Solubility in water (Solubility) was “sparingly soluble”.

In the case of `Nc1nc(N)c2nc(-c3ccccc3)c(N)nc2n1` [triamterene, reference compound], the “Diuretic Activity” value (rats [1]; 10.0 mg/kg) was 192% and the “Diuretic Activity” value (rats [1]; 20.0 mg/kg) was 242%.
